The values that follow come from PMC12268802, “The herbicidal natural product phosphonothrixin is an inhibitor of the riboflavin biosynthetic enzyme L‐3,4‐dihydroxy‐2‐butanone‐4‐phosphate synthase” (Pest Management Science, 2025).

In one series the test system is EPSP synthase. Details: method as in PMID 1939260. The settings on record: from several higher plants; cited from earlier work.
A further series deals with Lemna gibba. The experiment in a line: Lemna gibba growth assay. To be noted: 7 days. The series is classed as in vivo. As to the method: Growth experiments were performed in sterile 6‐well cell culture plates and were initiated by transferring four Lemna gibba fronds per well to 5 mL of K‐medium[22] pH 4.8 containing 1% (w/v) sucrose and a selected concentration of phosphonothrixin (1) and riboflavin determined from previous experiments. The cell culture plates were incubated for 7 days in a growth cabinet at 22 °C and a continuous photon flux density of 75 μE/m^2s.

Series [1] concerns the target dihydroxy‐acid dehydratase. The arrangement: method as in PMID 29995859. The settings on record: Arabidopsis enzyme; cited from earlier work.
In series [2] the test system is imidazoleglycerol phosphate dehydratase. Details: method as in PMID 12228396. The settings on record: cited from earlier work.
The conditions of series [3]: cited from earlier work.
Substrate in the series “DHBPS activity assay”: O=C(CO)[C@H](O)[C@H](O)COP(=O)(O)O
The experiment in a line: DHBPS activity assay. The series is classed as biochemical, Arabidopsis thaliana. To be noted: other: substrate varied 0 to 2 mM; pH 6.5. As for the experimental part:
DHBPS activity assays were out carried in 96‐well microtiter plates using a modification of the procedure previously described.[18] The reaction mixture contained 100 mM MES (2‐morpholinoethanesulfonic acid) buffer pH 6.5, 20 mM MgCl2, 20 mM D‐ribose‐5‐phosphate (Sigma‐Aldrich R7750), 0.02% Tween‐20, 0.2 mg BSA, 0.5 μg of spinach phosphoriboisomerase (Sigma‐Aldrich P9752) and DHBPS enzyme in a final volume of 110 μL. Assays were initiated by adding enzyme and terminated after 120 min incubation at rt by the addition of 90 μL of a solution of 3.5% α‐naphthol and 0.2% creatine in 2 N NaOH. After an additional 45 min incubation at rt the absorbance was determined at 540 nm. The pI50‐value for inhibition by phosphonothrixin (1) was determined with the XLFit Excel add‐in version 4.3.1 curve fitting program of ID Business Solutions Limited. […] Reaction velocities were fitted to the Michaelis–Menten equation with the XLFit curve fitting program.

[4] abbreviates: 50 μM riboflavin in the presence of 100 μM phosphonothrixin.

As to `O=C(O)CNCP(=O)(O)O` [glyphosate], the “IC50-values, EPSP synthase” value in the series with EPSP synthase is “single and double‐digit micromolar range”.

In the case of `Cc1cc2nc3c(=O)[nH]c(=O)nc-3n(C[C@H](O)[C@H](O)[C@H](O)CO)c2cc1C` [riboflavin], in the series with Lemna gibba (50 μM riboflavin alone), the “bleaching of Lemna gibba fronds” value is given as “some mild bleaching of the fronds” and the “growth of Lemna gibba” value is on record as “did not affect the growth”. Also, in the series on Lemna gibba (setting [4]), the “reversal of bleaching of Lemna gibba” value is “reversed the bleaching phenotype to the level observed in the experiment where only riboflavin had been applied” and the “reversal of growth inhibition of Lemna gibba” value was “almost completely alleviated the growth inhibition”.

aspterric acid: the half-maximal inhibitory concentration (IC50) (as a rule, the midpoint of a concentration-inhibition curve) in series [1] was 500 nM.

For the molecule `O=P(O)(O)[C@H]1CCC[C@@](O)(c2nc[nH]n2)C1` (relative stereo) [IRL1803, trans‐(3‐hydroxy‐3‐(1H‐1,2,4‐triazol‐3‐yl)cyclohexyl)‐phosphonic acid], the “potency against imidazoleglycerol phosphate dehydratase” value in series [2] is “nanomolar inhibitor”. For the same molecule, the “application rate required for a significant herbicidal effect” value in series [3] was around 1 kg ha^−1.

B1: AtDHBPS (Arabidopsis thaliana) (protein)
chain: MFVAEDDDFELDLPTPGFSSIPEAIEDIRQGKLVVVVDDEDRENEGDLVMAAQLATPEAMAFIVRHGTGIVCVSMKEDDLERLHLPLMVNQKENEEKLSTAFTVTVDAKHGTTTGVSARDRATTILSLASRDSKPEDFNRPGHIFPLKYREGGVLKRAGHTEASVDLTVLAGLDPVGVLCEIVDDDGSMARLPKLREFAAENNLKVVSIADLIRYRRKRDKLVERASKGGRADPAFLYKVVINSKLEGKPIPNPLLGLDSTRTGHHHHHH
notes: made in house; host or cells: Escherichia coli BL21(DE3)
For B1, the Km (in general, the substrate concentration at which the rate is half of its maximum) in the series “DHBPS activity assay” stood at 150 ± 20 µM.
